# Measurements taken from patent US7872005B2, “2-substituted heteroaryl compounds” (Synta Pharmaceuticals Corporation, priority 2004, dated 2011).
# System: IL-12 production in human PBMC or THP-1 cells
# Assay: In vitro inhibition of IL-12 production in stimulated human PBMC or THP-1 cells (ELISA)
# Format: cell-based
# Details: representative in vitro IC50 data
# Description: The biological activities of a heterocyclic compound can be evaluated by a number of cell-based assays. One of such assays can be conducted using cells from human peripheral blood mononuclear cells (PBMC) or human monocytic cell line (THP-1). The cells are stimulated with a combination of human interferon-γ (IFNγ) and lipopolysaccharide or a combination of IFNγ and Staphylococcus aureus Cowan I in the presence of a test compound. The level of inhibition of IL-12 production can be measured by determining the amount of p70 by using a sandwich ELISA assay with anti-human IL-12 antibodies. IC50 of the test compound can then be determined. Specifically, PBMC or THP-1 cells are incubated with the test compound. Cell viability was assessed using the bioreduction of MTS [3-(4,5-dimethylthiazol-2-yl)-5-(3-carboxymethoxyphenyl)-2-(4-sulfophenyl)-2H-tetrazolium] (Promega, Madison, Wis.).
# Reagents. Staphylococcus aureus Cowan I (SAC) was obtained from Calbiochem (La Jolla, Calif.), and lipopolysaccharide (LPS, Serratia marscencens) was obtained from Sigma (St. Louis, Mo.). Human and mouse recombinant IFNγ were purchased from Boehringer Mannheim (Mannheim, Germany) and Pharmingen (San Diego, Calif.), respectively.
# Human In Vitro Assay. Human PBMC were isolated by centrifugation using Ficoll-Paque (Pharmacia Biotech, Uppsala, Sweden) and prepared in RPMI medium supplemented with 10% fetal calf serum (FCS), 100 U/mL penicillin, and 100 μg/mL streptomycin. PBMC were plated in wells of a 96-well plate at a concentration of 5×10^5 cells/well, and primed by adding IFNγ (30 U/mL) for 22 h and stimulated by adding LPS (1 μg/mL), or by adding IFNγ (100 U/mL) and then stimulated by adding SAC (0.01%). A test pyrimidine compound was dissolved in DMSO, and added to wells of the 96-well plate. The final DMSO concentration was adjusted to 0.25% in all cultures, including the compound-free control. Human THP-1 cells were plated in wells, primed by adding IFNγ (100 U/mL) for 22 h and stimulated by adding SAC (0.025%) in the presence of different concentrations of the pyrimidine compound. Cell-free supernatants were taken 18 h later for measurement of cytokines. Cell viability was assessed using the bioreduction of MTS. Cell survival was estimated by determining the ratio of the absorbance in compound-treated groups versus compound-free control.
# The supernatant was assayed for the amount of IL-12p40, IL-12p70, or IL-10 by using a sandwich ELISA with anti-human antibodies, i.e., a Human IL-12 p40 ELISA kit from R&D Systems (Berkeley, Calif.), and a Human IL-12 p70 or IL-10 ELISA kit from Endogen (Cambridge, Mass.). Assays were based on the manufacturer's instructions.
# The biological activities of pyrimidine compounds were tested on human PBMC or THP-1 cells. Unexpectedly, some of the test compounds have IC50 values as low as <1 nM.
row,Compound,IC50 [nM]
1,"Cc1cccc(/C=N/Nc2cc(N3CCOCC3)nc(CCCOC(=O)Nc3ccc([N+](=O)[O-])cc3)n2)c1 [Compound 7, (4-Nitro-phenyl)-carbamic acid 3-{4-[N′-(3-methyl-benzylidene)-hydrazino]-6-morpholin-4-yl-pyrimidin-2-yl}-propyl ester]",< 25
2,"Cc1cccc(/C=N/Nc2cc(N3CCOCC3)nc(CCCOC(=O)Nc3ccc(Oc4ccccc4)cc3)n2)c1 [Compound 11, (4-Phenoxy-phenyl)-carbamic acid 3-{4-[N′-(3-methyl-benzylidene)-hydrazino]-6-morpholin-4-yl-pyrimidin-2-yl}-propyl ester]",25 to 50
3,"Cc1cccc(/C=N/Nc2cc(N3CCOCC3)nc(CCCOC(=O)NC3CCCCC3)n2)c1 [Compound 5, Cyclohexyl-carbamic acid 3-{4-[N′-(3-methyl-benzylidene)-hydrazino]-6-morpholin-4-yl-pyrimidin-2-yl}-propyl ester]",< 25
4,"Cc1cccc(/C=N/Nc2cc(N3CCOCC3)nc(CCCOC(=O)Nc3cccc(C(F)(F)F)c3)n2)c1 [Compound 2, (3-Trifluoromethyl-phenyl)-carbamic acid 3-{4-[N′-(3-methyl-benzylidene)-hydrazino]-6-morpholin-4-yl-pyrimidin-2-yl}-propyl ester]",< 25
5,"COc1cccc(NC(=O)OCCCc2nc(N/N=C/c3cccc(C)c3)cc(N3CCOCC3)n2)c1 [Compound 1, (3-Methoxy-phenyl)-carbamic acid 3-{4-[N′-(3-methyl-benzylidene)-hydrazino]-6-morpholin-4-yl-pyrimidin-2-yl}-propyl ester]",25 to 50
6,"Cc1cccc(/C=N/Nc2cc(N3CCOCC3)nc(CCCOC(=O)Nc3ccccc3F)n2)c1 [Compound 6, (2-Fluoro-phenyl)-carbamic acid 3-{4-[N′-(3-methyl-benzylidene)-hydrazino]-6-morpholin-4-yl-pyrimidin-2-yl}-propyl ester]",< 25
